Experimental data: patent US20060069132A1, “Azolecarboxamide herbicides” (priority 2004, published 2006)

Legend:
Test in all cases: Test C postemergence herbicide test
winter barley = format: in vivo, Hordeum vulgare; conditions: for Barley, Winter plant response rating: 500 g ai/ha
Protocol: (§1) At the same time, plants selected from these crop and weed species and also winter barley (Hordeum vulgare L.), blackgrass (Alopecurus myosuroides Huds.), canarygrass (Phalaris minor Retz.), chickweed (Stellaria media (L.) Vill.), downy bromegrass (Bromus tectorum L.), green foxtail (Setaria viridis (L.) Beauv.), Italian ryegrass (Lolium multiflorum Lam.), wheat (Triticum aestivum L.), wild oat (Avenafatua L.) and windgrass (Apera spica-venti (L.) Beauv.) were treated with postemergence applications of some of the test chemicals formulated in the same manner. Plants ranged in height from 2 to 18 cm (1- to 4-leaf stage) for postemergence treatments. Plant species in the flooded paddy test consisted of rice (Oryza sativa), smallflower umbrella sedge (Cyperus difformis L.), ducksalad (Heteranthera limosa (Sw.) Willd.) and barnyardgrass (Echinochloa crus-galli (L.) Beauv.) grown to the 2-leaf stage for testing. Treated plants and controls were maintained in a greenhouse for 12 to 14 days, after which time all species were compared to controls and visually evaluated. Plant response ratings, summarized in Table C, are based on a scale of 0 to 100 where 0 is no effect and 100 is complete control. A dash (-) response means no test result.

wild oat = format: in vivo, Avenafatua
Protocol: as §1

blackgrass = format: in vivo, Alopecurus myosuroides; conditions: for Blackgrass plant response rating: 500 g ai/ha
Protocol: as §1

windgrass = format: in vivo, Apera spica-venti
Protocol: as §1

[1] = Postemergence, 125 g ai/ha, scale 0 to 100, 0 no effect, 100 complete control
[2] = Postemergence, 250 g ai/ha, scale 0 to 100, 0 no effect, 100 complete control
[3] = postemergence, 31 g ai/ha, scale 0 to 100
[4] = postemergence, 62 g ai/ha, scale 0 to 100 (0 no effect, 100 complete control)
[5] = postemergence, 125 g ai/ha, scale 0 to 100
[6] = postemergence, 62 g ai/ha, scale 0 to 100
[7] = Postemergence, 500 g ai/ha, scale 0 to 100
[8] = Postemergence, 500 g ai/ha, scale 0 to 100, 0 no effect, 100 complete control

Compound | Plant response rating, Barley, Winter (winter barley; [1]) | Plant response rating, Barley, Winter (winter barley; [2]) | Plant response rating, Barley, Winter (winter barley; [3]) | Plant response rating, Barley, Winter (winter barley; [4]) | Plant response rating, Oat, Wild (wild oat; [2]) | Plant response rating, Oat, Wild (wild oat; [5]) | Plant response rating, Oat, Wild (wild oat; [6]) | Plant response rating, Blackgrass (blackgrass; [2]) | Plant response rating, Blackgrass (blackgrass; [5]) | Plant response rating, Blackgrass (blackgrass; [3]) | Plant response rating, Blackgrass (blackgrass; [6]) | Plant response rating, Windgrass (windgrass; [2]) | Plant response rating, Windgrass (windgrass; [5]) | Plant response rating, Windgrass (windgrass; [6]) | Barley, Winter plant response rating (winter barley; Postemergence, scale 0 to 100) | Oat, Wild plant response rating (wild oat; [7]) | Blackgrass plant response rating (blackgrass; Postemergence, scale 0 to 100) | Windgrass plant response rating (windgrass; [7]) | Plant response rating, Oat, Wild (wild oat; [8]) | Plant response rating, Windgrass (windgrass; [8])
CCn1nc(C(C)(C)C)cc1C(=O)Nc1cc(C(=S)N(C)C)ccn1 [Compound 334] | 30 | 30 | 20 | 20 | 95 | 75 | 55 | 95 | 95 | 75 | 90 | 75 | 60 | 60 |  |  |  |  |  | 
CCn1nc(C(C)(C)C)cc1C(=O)Nc1cccc(OC(F)F)c1 [Compound 332] | 35 | 40 |  | 35 | 70 | 65 | 50 | 100 | 70 |  | 60 | 65 | 60 | 35 | 40 | 70 | 70 | 75 |  | 
C=CCNC(=O)c1cccc(NC(=O)c2nn(C(C)(C)C)nc2CC)c1 [Compound 414] | 30 | 45 |  | 10 |  | 45 | 35 | 45 | 40 |  | 40 |  | 60 | 55 | 45 |  | 60 |  | 55 | 65
